Measured values taken from ChEMBL document CHEMBL1152142, “Validation of high-affinity binding sites for succinic acid through distinguishable binding of gamma-hydroxybutyric acid receptor-specific NCS 382 antipodes” (Bioorg Med Chem Lett, 2008).
Active and inactive are the calls of the source. The calls are words filed in the database; no cut-off is given here.

What was measured:
[1] = target: T1, Gamma-hydroxybutyrate receptor (Rattus norvegicus, UniProt Q6RY99); assay: Displacement of [3H]SUC from succinic acid binding site of gamma-hydroxybutyrate receptor in rat forebrain synaptic membranes
T1 sequence (Q6RY99 whole entry): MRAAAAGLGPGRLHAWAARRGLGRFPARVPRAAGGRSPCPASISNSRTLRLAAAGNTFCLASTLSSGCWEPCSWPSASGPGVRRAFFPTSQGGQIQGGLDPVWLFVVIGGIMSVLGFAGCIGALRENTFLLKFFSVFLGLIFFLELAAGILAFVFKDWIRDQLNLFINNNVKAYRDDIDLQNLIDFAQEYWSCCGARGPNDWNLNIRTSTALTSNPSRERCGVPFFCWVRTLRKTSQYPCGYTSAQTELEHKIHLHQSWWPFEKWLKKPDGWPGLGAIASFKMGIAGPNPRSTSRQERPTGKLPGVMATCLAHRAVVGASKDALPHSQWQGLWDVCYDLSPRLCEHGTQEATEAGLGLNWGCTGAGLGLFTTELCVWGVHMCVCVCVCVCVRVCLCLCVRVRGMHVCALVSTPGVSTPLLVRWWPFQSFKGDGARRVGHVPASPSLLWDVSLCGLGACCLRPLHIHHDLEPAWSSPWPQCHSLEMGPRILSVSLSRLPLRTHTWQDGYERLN

[2] = target: Calcium/calmodulin-dependent protein kinase type II subunit alpha (Rattus norvegicus, UniProt P11275); assay: Displacement of [3H]GHB from gamma-hydroxybutyrate binding site of gamma-hydroxybutyrate receptor in rat forebrain synaptic membranes; assay type: cell membranes, Membrane
Calcium/calmodulin-dependent protein kinase type II subunit alpha, sequence (P11275 whole entry): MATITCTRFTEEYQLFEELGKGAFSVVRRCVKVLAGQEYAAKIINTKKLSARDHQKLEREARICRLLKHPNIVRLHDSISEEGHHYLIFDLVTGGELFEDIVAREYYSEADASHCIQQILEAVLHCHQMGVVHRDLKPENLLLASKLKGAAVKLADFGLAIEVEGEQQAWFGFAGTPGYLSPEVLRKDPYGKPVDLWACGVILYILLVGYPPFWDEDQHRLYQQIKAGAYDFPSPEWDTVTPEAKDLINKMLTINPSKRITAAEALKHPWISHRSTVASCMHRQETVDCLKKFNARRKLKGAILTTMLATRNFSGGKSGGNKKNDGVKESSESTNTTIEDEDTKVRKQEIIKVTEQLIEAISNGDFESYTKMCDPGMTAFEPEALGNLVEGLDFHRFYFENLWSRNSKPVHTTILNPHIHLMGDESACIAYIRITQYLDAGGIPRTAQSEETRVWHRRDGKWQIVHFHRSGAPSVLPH

[3] = target: T2, Gamma-hydroxybutyrate receptor (Rattus norvegicus) (UniProt Q6RY99); assay: Binding affinity to succinic acid binding site of gamma-hydroxybutyrate receptor in rat forebrain synaptic membranes at 100 uM; assay type: cell membranes; conditions: Membrane
T2 sequence (whole entry): T1 sequence (Q6RY99 whole entry)

[4] = target: T2, Gamma-hydroxybutyrate receptor (Rattus norvegicus); assay: Binding affinity to gamma-hydroxybutyrate binding site of gamma-hydroxybutyrate receptor in rat forebrain synaptic membranes at 100 uM; assay type: cell membranes; conditions: Membrane

| SMILES | IC50 [1] [nM] | IC50 [2] [nM] | Activity [3] | Activity [4] |
| --- | --- | --- | --- | --- |
| O=C(O)/C=C1\CCCc2ccccc2C1O (racemic) | 500 | 900 |  |  |
| O=C(O)[C@H]1C[C@H](O)CCN1 |  |  | inactive | inactive |
| O=C(O)[C@H]1C[C@@H](O)CCN1 |  |  | 26% | 30% |
| COC(=O)[C@@H]1C[C@H](O)CCN1 |  |  | inactive | inactive |
| COC(=O)[C@H]1C[C@H](O)CCN1 |  |  | inactive | inactive |
| O=C(O)[C@@H]1C[C@H](O)CCN1 |  |  | inactive | inactive |
| O=C(O)/C=C1\CCCc2ccccc2[C@H]1O | 74000 | 93000 |  |  |
| O=C(O)/C=C1\CCCc2ccccc2[C@@H]1O | 400 | 800 |  |  |
